# Test results as given in patent US20100075370A1, “METHOD FOR DETERMINATION OF CELL VIABILITY BY USING FLOW CYTOMETRY WITH FIXED VOLUME ACQUISITION” (TUMORTEC GMBH, priority 2006, published 2010).
# Tested on: patient samples (pBMC from CLL patients)
# Assay: DiSC assay, chemosensitivity index Ci
# Format: cell-based, human
# Description: (2) A more complex standardization is the calculation of an index. In case of the chemosensitivity testing it is not a single value that has to be standardized. The chemosensitivity towards a drug is tested with several concentrations of the drug in parallel in a cell culture assay. […] This method was adopted for the present invention from the analysis of DiSC assays (Staib et al., British Journal of Haematology, 2005, 128, 783-791). The Chemosensitivity Index Ci was designed as a prognostic index for ex vivo chemosensitivity assays. Assay results were expressed as percent tumor cell survival (% TCS). The dose-response curve as a function of the dose-response relationship may be mathematically described by a […] regression model (FIG. 4). The dose-response curve was defined as CS=c1*e^conc*c2 % with cell survival (CS), drug concentration (conc) and the constants c1 and c2. c1 represented the y-axis distance and c2 the slope of the curve. The area under the curve (AUC) as an exact measure for the total dose response relation was defined as AUC=−e^c1/c2, on condition that c2 is less than 0, otherwise AUC is infinite. The chemosensitivity index, Ci, was set up as Ci=e^−AUC*c with a domain between 0 and 1. The drug-specific constant c was used for adjusting the Ci-value of 0.5 as the cut-off point between resistance and sensitivity. The constant c was defined as
# with AUCcut-off as the smallest AUC value among all clinical non-responding patients of the training data set. Obviously, all cytotoxic agents given for treatment were ineffective in these patients. The cut-off Ci value must be adjusted to 0.5 for prognosis of the effect of the drug on a patient in vivo when the drug is tested on said patient's cells in vitro using the method of the present invention. Ci values of 0-0.5 indicated resistance and values above 0.5 predicted sensitivity against the drug tested.
# The chemosensitivity index Ci based on the DiSC assay as described in Staib, P. et al., Br. J. Haematol., 128(6):783-91 (2005) is known to have a very high accuracy of prediction (98%) for the clinical outcome of a particular chemotherapy (Staib, P. et al., Br. J. Haematol., 128(6):783-91 (2005)). In order to evaluate the accuracy of the cytotoxicity assay as described in example 1 (“new method”), the Ci determination was performed for assay results of patient samples analyzed with the traditional DiSC assay and—in parallel—with the new assay method described in example 1. In total, 22 patient samples were analyzed. Fludara® was used in both assays. The cytotoxicity assay of example 1 was performed as described therein, and the DiSC assay was performed as described in Staib, P. et al., Br. J. Haematol., 128(6):783-91 (2005).
smiles,measurement,setting,value
"Nc1nc(F)nc2c1ncn2[C@@H]1O[C@H](COP(=O)(O)O)[C@@H](O)[C@@H]1O [Fludarabine phosphate, 2-Fluoro-9-(5-O-phosphono-β-D-arabinofuranosyl)-9H-purin-6-amine]",Ci (DiSC-Assay),patient #1,0.99
same,prediction (DiSC-Assay),patient #1,sensitive (values above 0.5 predicted sensitivity against the drug tested)
same,Ci (DiSC-Assay),patient #2,0.98
same,prediction (DiSC-Assay),patient #2,sensitive (values above 0.5 predicted sensitivity against the drug tested)
same,Ci (DiSC-Assay),patient #3,0.97
same,prediction (DiSC-Assay),patient #3,sensitive (values above 0.5 predicted sensitivity against the drug tested)
same,Ci (DiSC-Assay),patient #4,0.95
same,prediction (DiSC-Assay),patient #4,sensitive (values above 0.5 predicted sensitivity against the drug tested)
same,Ci (DiSC-Assay),patient #5,0.90
same,prediction (DiSC-Assay),patient #5,sensitive (values above 0.5 predicted sensitivity against the drug tested)
same,Ci (DiSC-Assay),patient #6,0.89
same,prediction (DiSC-Assay),patient #6,sensitive (values above 0.5 predicted sensitivity against the drug tested)
same,Ci (DiSC-Assay),patient #7,0.85
same,prediction (DiSC-Assay),patient #7,sensitive (values above 0.5 predicted sensitivity against the drug tested)
same,Ci (DiSC-Assay),patient #8,0.81
same,prediction (DiSC-Assay),patient #8,sensitive (values above 0.5 predicted sensitivity against the drug tested)
same,Ci (DiSC-Assay),patient #9,0.75
same,prediction (DiSC-Assay),patient #9,sensitive (values above 0.5 predicted sensitivity against the drug tested)
same,Ci (DiSC-Assay),patient #10,0.70
same,prediction (DiSC-Assay),patient #10,sensitive (values above 0.5 predicted sensitivity against the drug tested)
same,Ci (DiSC-Assay),patient #11,0.68
same,prediction (DiSC-Assay),patient #11,sensitive (values above 0.5 predicted sensitivity against the drug tested)
same,Ci (DiSC-Assay),patient #12,0.61
same,prediction (DiSC-Assay),patient #12,sensitive (values above 0.5 predicted sensitivity against the drug tested)
same,Ci (DiSC-Assay),patient #13,0.60
same,prediction (DiSC-Assay),patient #13,sensitive (values above 0.5 predicted sensitivity against the drug tested)
same,Ci (DiSC-Assay),patient #14,0.57
same,prediction (DiSC-Assay),patient #14,sensitive (values above 0.5 predicted sensitivity against the drug tested)
same,Ci (DiSC-Assay),patient #15,0.55
same,prediction (DiSC-Assay),patient #15,sensitive (values above 0.5 predicted sensitivity against the drug tested)
same,Ci (DiSC-Assay),patient #16,0.50
same,prediction (DiSC-Assay),patient #16,resistant (Ci values of 0-0.5 indicated resistance)
same,Ci (DiSC-Assay),patient #17,0.47
same,prediction (DiSC-Assay),patient #17,resistant (Ci values of 0-0.5 indicated resistance)
same,Ci (DiSC-Assay),patient #18,0.46
same,prediction (DiSC-Assay),patient #18,resistant (Ci values of 0-0.5 indicated resistance)
same,Ci (DiSC-Assay),patient #19,0.43
same,prediction (DiSC-Assay),patient #19,resistant (Ci values of 0-0.5 indicated resistance)
same,Ci (DiSC-Assay),patient #20,0.39
same,prediction (DiSC-Assay),patient #20,resistant (Ci values of 0-0.5 indicated resistance)
same,Ci (DiSC-Assay),patient #21,0.34
same,prediction (DiSC-Assay),patient #21,resistant (Ci values of 0-0.5 indicated resistance)
same,Ci (DiSC-Assay),patient #22,0.32
same,prediction (DiSC-Assay),patient #22,resistant (Ci values of 0-0.5 indicated resistance)
